Measurements as given in publication PMC9238401, “Peptide Conjugates Derived from flg15, Pep13, and PIP1 That Are Active against Plant-Pathogenic Bacteria and Trigger Plant Defense Responses” (Applied and Environmental Microbiology, 2022).
Non-standard residues stand in square brackets, D forms with d. Residues, ends and D or L forms follow the SMILES beside them. No end group written: not given here.

How the values were obtained:
[1] = tested on: Xanthomonas arboricola pv. pruni CFBP5563; assay: In vitro growth inhibition (MIC); assay type: cell-based; conditions: TSB, 25°C, 48 h, OD 600 nm (Bioscreen C), three replicates, experiment repeated twice; MIC given as range
Method in brief: (§1)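 Bacterial suspensions (10^8 CFU mL^−1, from 24 h plates at 25°C) mixed with peptide dilutions in TSB, triplicate wells. OD600 read hourly over 48 h at 25°C with shaking. MIC = lowest concentration with no growth at end of run.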

[2] = tested on: Pseudomonas syringae pv. syringae EPS94; assay: In vitro growth inhibition (MIC); assay type: cell-based; conditions: TSB, 25°C, 48 h, OD 600 nm (Bioscreen C), three replicates, experiment repeated twice; MIC given as range
Method in brief: as §1

[3] = tested on: Xanthomonas fragariae Xf349-9A; assay: In vitro growth inhibition (MIC); assay type: cell-based; conditions: TSB, 25°C, 48 h, OD 600 nm (Bioscreen C), three replicates, experiment repeated twice; MIC given as range
Method in brief: as §1

[4] = tested on: Pseudomonas syringae pv. actinidiae Psa3700.1.1; assay: In vitro growth inhibition (MIC); assay type: cell-based; conditions: TSB, 25°C, 48 h, OD 600 nm (Bioscreen C), three replicates, experiment repeated twice; MIC given as range
Method in brief: as §1

[5] = tested on: Erwinia amylovora PMV6076; assay: In vitro growth inhibition (MIC); assay type: cell-based; conditions: TSB, 25°C, 48 h, OD 600 nm (Bioscreen C), three replicates, experiment repeated twice; MIC = lowest concentration with no growth, given as range
Method in brief: as §1

[6] = tested on: plant-pathogenic bacteria (E. amylovora, X. arboricola pv. pruni, X. fragariae, X. axonopodis pv. vesicatoria, P. syringae pv. actinidiae, P. syringae pv. …); conditions: 24 h
[7] = tested on: Xanthomonas axonopodis pv. vesicatoria 2133-2; conditions: TSB, 25°C, 48 h, OD 600 nm (Bioscreen C), three replicates, experiment repeated twice; MIC given as range
Method in brief: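 Bacteria grown 24 h (48 h for Xanthomonas axonopodis, X. fragariae) at 25°C, suspended at 10^8 CFU mL^−1, mixed with peptide dilutions in TSB.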

horse erythrocytes = conditions: TRIS buffer pH 7.2, 1 h, 37°C, absorbance 540 nm, relative to melittin 100 μM, ± confidence interval (α = 0.05)
Method in brief: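 Horse erythrocytes washed in 10 mM Tris, 150 mM NaCl, pH 7.2 were mixed 1:1 with compound solutions at 750, 500, 300 and 100 μM and shaken 1 h at 37°C. Hemoglobin release read at 540 nm in supernatant; % hemolysis relative to buffer and melittin control.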

[8] = HPLC retention time as indicator of relative hydrophobicity; assay type: physicochemical; conditions: chromatographic, Kromasil 100 C18 (4.6 mm × 40 mm, 3 μm), linear gradient 2 to 100% B over 12 min, 1 mL/min; A 0.1% aqueous TFA, B 0.1% TFA in CH3CN; used as indicator of relative hydrophobicity
Experimental: The parameters related to the structure of the peptide conjugates (sequence, charge, hydrophobic ratio [HR], and HPLC retention time), as well as their physicochemical properties (grand average hydropathicity [GRAVY] and hydrophobic moment [<μH>]) obtained from the online programs ProtParam (Expasy server) and HeliQuest are included in Table 1.
Peptides were analyzed under standard analytical HPLC conditions. Method A: peptides were analyzed with a Dionex liquid chromatography instrument composed of a UV/Vis Dionex UVD170U detector, a P680 Dionex pump, an ASI-100 Dionex automatic injector, and Chromeleon 6.60 software. Detection was performed at a wavelength of 220 nm. Solvent A was 0.1% aqueous trifluoroacetic acid (TFA), and solvent B was 0.1% TFA in CH3CN. Analyses were carried out with a Kromasil 100 C18 (4.6 mm × 40 mm, 3 μm) column with a linear gradient of 2 to 100% B over 7 min at a flow rate of 1 mL/min. Method B: peptides were analyzed with a 1260 Infinity II liquid chromatography instrument (Agilent Technologies) composed of a diode array detector HS, a quaternary pump VL, a 1260 vial sampler, and OpenLab CDS ChemStation software. Analyses were carried out with a Kromasil 100 C18 (4.6 mm × 40 mm, 3 μm) column with a linear gradient of 2 to 100% B over 12 min at a flow rate of 1 mL/min.

tobacco leaves = assay: Effect of peptide infiltration on tobacco leaves (phytotoxicity); assay type: in vivo
Method in brief: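 Peptide solutions at 50, 150 and 250 μM were infiltrated into the mesophyll of fully expanded tobacco leaves, with at least three leaves per peptide and dose on different plants. Water and equimolar melittin served as controls. Lesion diameter was measured 48 h after infiltration.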

[9] = 100 μL infiltrated into mesophyll, lesion diameter 48 h after infiltration, at least three leaves, ± confidence interval (α = 0.05)

Row | Molecule | MIC, Xap [1] [µM] | MIC, Pss [2] [µM] | MIC, Xf [3] [µM] | MIC, Psa [4] [µM] | MIC, Ea [5] [µM] | MIC against all the bacteria tested (span over the six pathogens) [6] [µM] | MIC, Xav [7] [µM] | Percent hemolysis at 50 μM (horse erythrocytes) [%] | Percent hemolysis at 150 μM (horse erythrocytes) [%] | Percent hemolysis at 250 μM (horse erythrocytes) [%] | Percent hemolysis at 375 μM (horse erythrocytes) [%] | tR (min), HPLC retention time (method B) [8] [min] | Size of the lesions in infiltrated tobacco leaves at 50 μM (tobacco leaves; in vivo) [cm] | Size of the lesions in infiltrated tobacco leaves at 150 μM (tobacco leaves; in vivo) [cm] | Size of the lesions in infiltrated tobacco leaves at 250 μM (tobacco leaves; in vivo) [cm] | Size of the lesions in infiltrated tobacco leaves at 50 μM (tobacco leaves; [9]) [cm] | Size of the lesions in infiltrated tobacco leaves at 150 μM (tobacco leaves; [9]) [cm] | Size of the lesions in infiltrated tobacco leaves at 250 μM (tobacco leaves; [9]) [cm]
1 | CC[C@H](C)[C@H](NC(=O)[C@H](CCCCN)NC(=O)[C@H](CCCCN)NC(=O)[C@@H](Cc1ccccc1)NC(=O)[C@H](CC(C)C)NC(=O)[C@H](CCCCN)NC(=O)[C@@H](N)CCCCN)C(=O)N[C@@H](CC(C)C)C(=O)N[C@@H](CCCCN)C(=O)N[C@@H](Cc1ccc(O)cc1)C(=O)N[C@@H](CC(C)C)C(=O)N[C@H](C(=O)N[C@@H](Cc1c[nH]c2ccccc12)C(=O)N[C@@H](CC(N)=O)C(=O)N[C@@H](CCC(N)=O)C(=O)N1CCC[C@H]1C(=O)N[C@H](C(=O)N[C@@H](CCCNC(=N)N)C(=O)NCC(=O)N[C@@H](Cc1ccccc1)C(=O)N[C@@H](CCCCN)C(=O)N[C@H](C(=O)N[C@@H](Cc1ccc(O)cc1)C(=O)N[C@@H](CCC(=O)O)C(=O)O)C(C)C)C(C)C)C(C)C [BP143-Pep13] (H-KKL[dF]KKILKYLVWNQPVRGFKVYE-OH) | 1.6 to 3.1 | 1.6 to 3.1 | 6.2 to 12.5 | 0.8 to 1.6 | 1.6 to 3.1 | 0.8 to 12.5 | 1.6 to 3.1 | 5 ± 1.9 | 9 ± 0.4 | 16 ± 1.9 | 29 ± 0.9 | 5.62 | 0.10 ± 0.12 | 0.44 ± 0.16 | 0.60 ± 0.25 | – | – | –
2 | CC[C@H](C)[C@H](NC(=O)[C@H](CCCCN)NC(=O)[C@H](CCCCN)NC(=O)[C@@H](Cc1ccccc1)NC(=O)[C@H](CC(C)C)NC(=O)[C@H](CCCCN)NC(=O)[C@H](CCCCN)NC(=O)[C@H](CCC(=O)O)NC(=O)[C@H](Cc1ccc(O)cc1)NC(=O)[C@@H](NC(=O)[C@H](CCCCN)NC(=O)[C@H](Cc1ccccc1)NC(=O)CNC(=O)[C@H](CCCNC(=N)N)NC(=O)[C@@H](NC(=O)[C@@H]1CCCN1C(=O)[C@H](CCC(N)=O)NC(=O)[C@H](CC(N)=O)NC(=O)[C@H](Cc1c[nH]c2ccccc12)NC(=O)[C@@H](N)C(C)C)C(C)C)C(C)C)C(=O)N[C@@H](CC(C)C)C(=O)N[C@@H](CCCCN)C(=O)N[C@@H](Cc1ccc(O)cc1)C(=O)N[C@@H](CC(C)C)C(N)=O [Pep13-BP143] (H-VWNQPVRGFKVYEKKL[dF]KKILKYL-NH2) | 0.8 to 1.6 | 6.2 to 12.5 | 3.1 to 6.2 | 3.1 to 6.2 | 6.2 to 12.5 | 0.8 to 12.5 | 0.8 to 1.6 | 5 ± 0.5 | 8 ± 0.3 | 10 ± 0.6 | 17 ± 0.4 | 5.97 | 0.16 ± 0.15 | 0.52 ± 0.14 | 0.62 ± 0.13 | – | – | –
3 | H-RINSAKDDAAGLQIAKKLFKKILKKL-NH2 [flg15-BP16] | 3.1 to 6.2 | 6.2 to 12.5 | 1.6 to 3.1 | 3.1 to 6.2 | 3.1 to 6.2 | – | 1.6 to 3.1 | 2 ± 0.1 | 3 ± 0.2 | 4 ± 0.9 | 5 ± 0.3 | 5.89 | – | – | – | 0.20 ± 0.12 | 0.49 ± 0.13 | 0.42 ± 0.11
4 | H-YGIHTHKKVVFWVKFK-NH2 [PIP1-KSLW] | 3.1 to 6.2 | 6.2 to 12.5 | 6.2 to 12.5 | 6.2 to 12.5 | 12.5 to 25 | – | 3.1 to 6.2 | 7 ± 0.8 | 7 ± 1.1 | 6 ± 0.4 | 6 ± 0.4 | 4.81 | 0 ± 0 | 0.47 ± 0.24 | 0.70 ± 0.11 | – | – | –
5 | KKLFKKILKKL-RINSAKDDAAGLQIA-OH [BP16-flg15, peptide conjugate, BP16 at N-terminus, flg15 at C-terminus] | 25 to 50 | 12.5 to 25 | 12.5 to 25 | 12.5 to 25 | > 50 | – | 3.1 to 6.2 | 0 ± 0.3 | 1 ± 0.1 | 0 ± 0.6 | 1 ± 0.5 | 4.59 | – | – | – | 0 ± 0 | 0.31 ± 0.10 | 0.30 ± 0.09
6 | KKLFKKILKKLVWNQPVRGFKVYE [BP16-Pep13] | 0.8 to 1.6 | 1.6 to 3.1 | 1.6 to 3.1 | 1.6 to 3.1 | 6.2 to 12.5 | 0.8 to 12.5 | 1.6 to 3.1 | 1 ± 0.4 | 1 ± 0.3 | 1 ± 0.5 | 2 ± 0.4 | 5.12 | 0.23 ± 0.13 | 0.45 ± 0.12 | 1.02 ± 0.32 | – | – | –
7 | KKLFKKILKYL-RINSAKDDAAGLQIA-OH [BP100-flg15, peptide conjugate, BP100 at N-terminus, flg15 at C-terminus] | 1.6 to 3.1 | 3.1 to 6.2 | 6.2 to 12.5 | 1.6 to 3.1 | 6.2 to 12.5 | – | 3.1 to 6.2 | 1 ± 0.9 | 1 ± 0.8 | 3 ± 0.0 | 6 ± 1.6 | 4.96 | – | – | – | 0.10 ± 0.12 | 0.28 ± 0.14 | 0.36 ± 0.13
8 | KKVVFWVKFK-RINSAKDDAAGLQIA-OH [KSLW-flg15, peptide conjugate, KSL-W at N-terminus, flg15 at C-terminus] | > 50 | > 50 | 12.5 to 25 | > 50 | > 50 | – | 6.2 to 12.5 | 4 ± 1.9 | 7 ± 3.4 | 8 ± 0.9 | 8 ± 2.7 | 4.75 | – | – | – | 0 ± 0 | 0.13 ± 0.09 | 0.26 ± 0.05
